# Data: patent US12390483B2, “Compounds and methods for treating neurological and cardiovascular conditions” (Astrocyte Pharmaceuticals, Inc., priority 2016, dated 2025)
# “Also recorded” adds a separate entry of the source.
# Key:
# GFAP expression = experiment: Traumatic brain injury (TBI) in mice, Western blot analysis for GFAP; type: in vivo; details: for GFAP expression in brain (Western blot, GFAP/actin): 7 days post-injury, versus untreated TBI
# Protocol: Animals and traumatic brain injury (TBI): TBI was performed with a controlled closed skull injury model as described in […] al. 2012 (J. Neurotrauma 30, 55-66). Following the method described therein, a pneumatic impact device was used to generate a moderate TBI leaving the skull and dura matter intact. To achieve this, C57BL/6 mice were anesthetized with isoflurane (3% induction, 1% maintenance) in 100% oxygen. A body temperature of 37° C. was maintained using a temperature-controlled heated surgical table. A small midline incision was made on the scalp using aseptic surgical techniques. A 5 mm stainless steel disc was positioned on the skull and fixed using superglue on the right parietal bone between bregma and lamda over the somatosensory cortex. The mouse was then positioned on a stage directly under the pneumatic impact tip. […] Scalp incisions were closed using 4-0 nylon braided suture and antibiotic ointment applied to the incision. Mice were placed in a Thermo-Intensive Care Unit (Braintree Scientific model FV-1; 37° C.; 27% 02) and monitored until fully awake and moving freely. […] Western Blot Analysis for GFAP: At selected survival times, mice were anesthetized under isoflurane and sacrificed. The brain was removed and placed on ice for dissection into impacted and non-impacted brain hemispheres. […] The homogenate was transferred to a 2 mL tube and centrifuged at 1000 g for 10 minutes at 4° C. and the supernatant was collected and analyzed. Protein concentration was determined by the BCA assay using a 1:50 dilution. 100 μg of protein was removed as an aliquot for each sample and Laemmli buffer containing β-mercaptoethanol added and the sample placed in a heat block for 3 minutes at 95° C. Samples were loaded on a 12% gel and ran at 80 V for 20 minutes followed by 40 minutes at 130 V. Samples were transferred to nitrocellulose membrane at 100 V for 1 hour. The membrane was blocked with 5% milk in TBS-T for 30 minutes. GFAP (1:1000-Imgenex IMG-5083-A) was added and placed at 4° C. overnight. The membrane was washed with TBS-T three times for 10 minutes. Secondary antibody for GFAP (Donkey anti-rabbit HRP conjugated (ImmunoJackson Laboratories; 711-035-152; 1:20000) was applied at room temperature for 1 hour. The membranes were washed with TBS-T for 15 minutes (3 times) and developed using the Western Lightning Plus-ECL kit (PerkinElmer, Inc.) following manufacturer's directions.
# [1] = test system: photothrombosis-induced stroke infarctions; experiment: Photothrombosis-induced stroke in mice, TTC-stained brain infarction size; type: in vivo; details: for size of the brain infarction (TTC staining): 24 hours after stroke, versus vehicle; for size of brain infarctions in mice pretreated with the A3 receptor antagonist MRS1523: MRS1523 2 mg/kg i.p. at 0 and 2 hours, treatment within 30 minutes of clot formation, 24 hours
# Protocol: Photothrombosis-induced Stroke: Photothrombosis was performed as described in Zheng et al 2010 (PloS One 5 (12): e14401). In brief, Rose Bengal is a fluorescent dye that when injected into the vasculature and excited, generates singlet oxygen that damages the endothelial wall and induces a local thrombosis (clot). Using this technique, mice were given a 0.1 mL tail-vein injection of sterilized Rose Bengal (RB, Sigma, U.S.A.) in artificial cerebral spinal fluid (aCSF). The RB concentration was 20 mg/mL. A cortical region was centered in the imaging field and illuminated with a green laser (543 nm, 5 mW) using a 0.8-NA 40× water-immersion objective (Nikon, Tokyo). The clot formation was monitored in real time until the targeted vessel or downstream capillaries were firmly occluded. Stable clots were subsequently identified by a non-fluorescent vessel segmentation ending with highly fluorescent regions. […] Treatments, MRS4322 (0.16 mg/kg; 0.5 μmol/kg) or MRS2365 (0.24 mg/kg; 0.5 μmol/kg) were introduced via intraperitoneal injections (i.p.). […] Animals and Photothrombosis-induced Stroke: Stroke was performed as described in Zheng et al 2010 (PloS One 5 (12): e14401). Female C57Bl/6 mice (4-6 months) were used in this study. From the methods of this manuscript: Mice were anesthetized at 3% isoflurane with 100% oxygen and subsequently maintained at 1% isoflurane through a nosecone. Depth of anesthesia was monitored and regulated according to vital signs, pinch withdrawal and eye blinks. Body temperature was maintained at 37° C. by a feedback-controlled heating pad (Gaymar T/Pump). Vital signs including oxygen saturation, respiratory rate, and heart rate were continuously monitored by using the MouseOx system (STARR Life Sciences). The hair on each mouse's head was trimmed and a small incision was made in the scalp to expose the skull. A custom-made stainless steel plate was glued to the skull with VetBond Tissue Adhesive (3M, St Paul, MN). A cranial thinned-skull imaging window was created over the right primary somatosensory cortex (˜1.5 mm posterior to Bregma and 2 mm lateral from midline) depending on the experiment. In brief, a large region of the skull was first thinned with the electric drill and then further thinned with a surgical blade. The final thickness of the thinned skull was approximately 50 μm. After the cranial imaging window was created, mice were transferred to microscope stage and used for photothrombosis or imaging experiments. For the repeat imaging experiments, the plate was carefully detached from the skull and the scalp was sutured (Ethicon 6-0 sild suture). After each experiment, the mice were either returned to cages until the next timepoint or sacrificed. All procedures were approved by the Institutional Animal Care and Use Committee (IACUC) at University of Texas Health Science Center at San Antonio. Thirty minutes following stroke or sham (uninjured), mice were treated with either vehicle (saline) or drugs (MRS4322, MRS2365, MRS5698 or Cl-IBMECA). Post photothrombotic infarction evaluation. The size of cerebral infarcts was evaluated using 2,3,5-Triphenyltetrazolium chloride (TTC) staining as described in Zheng et al 2010 (PloS One 5 (12): e14401). In brief, RB-induced lesions in brain slices were stained with TTC. TTC is a colorless dye that stains healthy brain tissue red when reduced by the mitochondrial enzyme succinyl dehydrogenase (Bederson J B et al., 1986). The absence of staining in necrotic tissue is then used to define the area of a brain infarction. Mice were sacrificed by cervical dislocation, their brains removed and then placed in ice cold HBSS for 3 minutes. […] The sections were fixed in 10% buffered formaldehyde solution overnight at 4° C. Slices were imaged on a flatbed scanner (HP scanjet 8300) for analysis of the lesion size at 1200 dpi. Photothrombosis-induced Stroke: Photothrombosis was performed as described in Zheng et al. 2010 (PloS One 5 (12): e14401). […]
# [2] = TBI mice, approx. 0.5 μmol/kg 30 min post-TBI
# [3] = Example 6: mice, 0.5 μmol/kg i.p. within 30 minutes of clot formation
Compound,"GFAP expression in brain (Western blot, GFAP/actin) (GFAP expression; [2])","size of the brain infarction (TTC staining) [1, 3]",size of brain infarctions in mice pretreated with the A3 receptor antagonist MRS1523 [1],"GFAP levels in plasma (Western blot, relative to actin) (GFAP expression; TBI mice, approx. 0.5 μmol/kg 30 min post-TBI, day 7, versus untreated TBI)",efficacy in the mouse TBI model (GFAP expression; summary statement),"size of the brain infarction (TTC staining) ([1]; Example 7: mice, 100 ul of 100 uM i.p. within 30 minutes of clot formation)",efficacy in the mouse photothrombotic stroke model ([1]; summary statement)
CSc1nc(N)c2ncn([C@H]3[C@H](O)[C@H](O)[C@]4(COP(=O)(O)OP(=O)(O)O)C[C@H]34)c2n1 [MRS2365],significantly lower; also recorded: decreased,significantly reduced,not reduced,,,,
CSc1nc(N)c2ncn([C@H]3[C@H](O)[C@H](O)[C@]4(CO)C[C@H]34)c2n1 [MRS4322],significantly lower; also recorded: decreased,significantly reduced,reversed by MRS1523; also recorded: not reduced,significantly reduced,significant efficacy,significantly reduced,significant efficacy
